# Source: patent US20120122148A1, “Media For The Specific Detection Of Gram-Negative Bacteria Resistant To Beta-Lactam Antibiotics” (bioMerieux, SA, priority 2009, published 2012)
# Experiments:
# Assay in all cases: Growth and enzymatic activity on ChromID CPS-based selective media
# Assay type in all cases: cell-based
# Conditions in all cases: cefpodoxime 4 mg/l (T), cefepime 0.25 mg/l (A), cefamandole 3 mg/l (B), cefuroxime 3 mg/l (C), each with 300 mg/l cloxacillin
# [1] = test system: Escherichia coli 0505101 (ESBL); parameters: Enz act.: key to the marks not given beside the values
# Excerpt: (§1) Choice of strains: The inventors selected strains which make it possible to evaluate the activity of antibiotics with respect to Gram-negative species: enterobacteria and nonfermenting bacilli. In particular, ESBL-producing strains, high-level cephalosporinase-producing strains (HL Case) and strains without a particular resistance profile, termed wild-type strains, were used.
# (§2) Preparation of media: The media tested were media composed of the peptone base of the ChromID CPS medium (bioMérieux ref 43541) to which were added, after autoclaving, in molten media, 300 mg/l cloxacillin and, for medium T: 4 mg/l cefpodoxime, for medium A: 0.25 mg/L of cefepime, for medium B: 3 mg/l of cefamandole and for medium C: 3 mg/l of cefuroxime.
# (§3) Inoculation of media: The media are inoculated by carrying out a 3-quadrant streaking method using bacterial suspensions at 0.5 McF. The media are then incubated for 24 hours at 37° C.
# (§4) Reading of media: The media are observed visually after 18 h and 24 hours of incubation, the growth density and also the colorations and coloration strengths are evaluated according to the scale below: • − or 0: absence of growth or of expression of enzymatic acitivity (i.e. no coloration) • +: weak growth, or enzymatic activity • ++: very strong growth density or strong enzymatic acitivity (very strong coloration)
# [2] = test system: Enterobacter spp 0503037 (Wild-type)
# Excerpt: as §1, §2, §3, §4
# [3] = test system: Proteus mirabilis 0105109 (HL case)
# Excerpt: as §1, §2, §3, §4
# [4] = test system: Proteus mirabilis 0105105 (HL case)
# Excerpt: as §1, §2, §3, §4
# [5] = test system: Klebsiella oxytoca 0105100 (HL case)
# Excerpt: as §1, §2, §3, §4
# [6] = test system: Proteus mirabilis 9709068 (ESBL)
# Excerpt: as §1, §2, §3, §4
# [7] = test system: Serratia fonticola 8001047 (Wild-type)
# Excerpt: as §1, §2, §3, §4
# [8] = test system: Morganella morganii 9904104 (HL case)
# Excerpt: as §1, §2, §3, §4
# [9] = test system: Klebsiella oxytoca 0502094 (ESBL); parameters: key to the marks not given beside the values
# Excerpt: as §1, §2, §3, §4
# [10] = test system: Enterobacter aerogenes 0502112 (ESBL); parameters: key to the marks not given beside the values
# Excerpt: as §1, §2, §3, §4
# [11] = test system: Enterobacter spp 9306069 (HL case); parameters: key to the marks not given beside the values
# Excerpt: as §1, §2, §3, §4
# [12] = test system: Escherichia coli 0411146 (ESBL); parameters: key to the marks not given beside the values
# Excerpt: as §1, §2, §3, §4
smiles,measurement,setting,value
"CO/N=C(\C(=O)N[C@@H]1C(=O)N2C(C(=O)O)=C(COC(N)=O)CS[C@H]12)c1ccco1 [Cefuroxime, cefuroxime]",Enz act.,[1]; 18 h at 37° C.,++
same,Growth,[1]; 18 h at 37° C.,++
same,Enz act.,[1]; 24 h at 37° C.,++
same,Growth,[1]; 24 h at 37° C.,++
same,Enz act.,[2]; 18 h at 37° C.,++
same,Growth,[2]; 18 h at 37° C.,++
same,Enz act.,[2]; 24 h at 37° C.,++
same,Growth,[2]; 24 h at 37° C.,++
same,Enz act.,[3]; 18 h at 37° C.,++
same,Growth,[3]; 18 h at 37° C.,+
same,Enz act.,[3]; 24 h at 37° C.,++
same,Growth,[3]; 24 h at 37° C.,+
same,Enz act.,[4]; 18 h at 37° C.,−
same,Growth,[4]; 18 h at 37° C.,−
same,Enz act.,[4]; 24 h at 37° C.,−
same,Growth,[4]; 24 h at 37° C.,−
same,Enz act.,[5]; 18 h at 37° C.,++
same,Growth,[5]; 18 h at 37° C.,+
same,Enz act.,[5]; 24 h at 37° C.,++
same,Growth,[5]; 24 h at 37° C.,++
same,Enz act.,[6]; 18 h at 37° C.,+
same,Growth,[6]; 18 h at 37° C.,+
same,Enz act.,[6]; 24 h at 37° C.,++
same,Growth,[6]; 24 h at 37° C.,+
same,Enz act.,[7]; 18 h at 37° C.,++
same,Growth,[7]; 18 h at 37° C.,++
same,Enz act.,[7]; 24 h at 37° C.,++
same,Growth,[7]; 24 h at 37° C.,++
same,Enz act.,[8]; 18 h at 37° C.,−
same,Growth,[8]; 18 h at 37° C.,−
same,Enz act.,[8]; 24 h at 37° C.,−
same,Growth,[8]; 24 h at 37° C.,−
same,Enz act.,[9]; 18 h at 37° C.,++
same,Growth,[9]; 18 h at 37° C.,++
same,Enz act.,[9]; 24 h at 37° C.,++
same,Growth,[9]; 24 h at 37° C.,++
same,Enz act.,[10]; 18 h at 37° C.,++
same,Growth,[10]; 18 h at 37° C.,++
same,Enz act.,[10]; 24 h at 37° C.,++
same,Growth,[10]; 24 h at 37° C.,++
same,Enz act.,[11]; 18 h at 37° C.,++
same,Growth,[11]; 18 h at 37° C.,++
same,Enz act.,[11]; 24 h at 37° C.,++
same,Growth,[11]; 24 h at 37° C.,++
same,Enz act.,[12]; 18 h at 37° C.,++
same,Growth,[12]; 18 h at 37° C.,++
same,Enz act.,[12]; 24 h at 37° C.,++
same,Growth,[12]; 24 h at 37° C.,++
"COCC1=C(C(=O)O)N2C(=O)[C@@H](NC(=O)/C(=N\OC)c3csc(N)n3)[C@H]2SC1 [Cefpodoxime, cefpodoxime]",Enz act.,[1]; 18 h at 37° C.,++
same,Growth,[1]; 18 h at 37° C.,+
same,Enz act.,[1]; 24 h at 37° C.,++
same,Growth,[1]; 24 h at 37° C.,++
same,Enz act.,[2]; 18 h at 37° C.,++
same,Growth,[2]; 18 h at 37° C.,++
same,Enz act.,[2]; 24 h at 37° C.,++
same,Growth,[2]; 24 h at 37° C.,++
same,Enz act.,[3]; 18 h at 37° C.,−
same,Growth,[3]; 18 h at 37° C.,−
same,Enz act.,[3]; 24 h at 37° C.,−
same,Growth,[3]; 24 h at 37° C.,−
same,Enz act.,[4]; 18 h at 37° C.,−
same,Growth,[4]; 18 h at 37° C.,−
same,Enz act.,[4]; 24 h at 37° C.,−
same,Growth,[4]; 24 h at 37° C.,−
same,Enz act.,[5]; 18 h at 37° C.,++
same,Growth,[5]; 18 h at 37° C.,++
same,Enz act.,[5]; 24 h at 37° C.,++
same,Growth,[5]; 24 h at 37° C.,++
same,Enz act.,[6]; 18 h at 37° C.,+
same,Growth,[6]; 18 h at 37° C.,+
same,Enz act.,[6]; 24 h at 37° C.,+
same,Growth,[6]; 24 h at 37° C.,+
same,Enz act.,[7]; 18 h at 37° C.,+
same,Growth,[7]; 18 h at 37° C.,+
same,Enz act.,[7]; 24 h at 37° C.,++
same,Growth,[7]; 24 h at 37° C.,+
same,Enz act.,[8]; 18 h at 37° C.,−
same,Growth,[8]; 18 h at 37° C.,−
same,Enz act.,[8]; 24 h at 37° C.,−
same,Growth,[8]; 24 h at 37° C.,−
same,Enz act.,[9]; 18 h at 37° C.,++
same,Growth,[9]; 18 h at 37° C.,++
same,Enz act.,[9]; 24 h at 37° C.,++
same,Growth,[9]; 24 h at 37° C.,++
same,Enz act.,[10]; 18 h at 37° C.,++
same,Growth,[10]; 18 h at 37° C.,++
same,Enz act.,[10]; 24 h at 37° C.,++
same,Growth,[10]; 24 h at 37° C.,++
same,Enz act.,[11]; 18 h at 37° C.,++
same,Growth,[11]; 18 h at 37° C.,++
same,Enz act.,[11]; 24 h at 37° C.,++
same,Growth,[11]; 24 h at 37° C.,++
same,Enz act.,[12]; 18 h at 37° C.,++
same,Growth,[12]; 18 h at 37° C.,++
same,Enz act.,[12]; 24 h at 37° C.,++
same,Growth,[12]; 24 h at 37° C.,++
"Cn1nnnc1SCC1=C(C(=O)O)N2C(=O)[C@@H](NC(=O)[C@H](O)c3ccccc3)[C@H]2SC1 [Cefamandole, cefamandole]",Enz act.,[1]; 18 h at 37° C.,++
same,Growth,[1]; 18 h at 37° C.,++
same,Enz act.,[1]; 24 h at 37° C.,++
same,Growth,[1]; 24 h at 37° C.,++
same,Enz act.,[2]; 18 h at 37° C.,++
same,Growth,[2]; 18 h at 37° C.,++
same,Enz act.,[2]; 24 h at 37° C.,++
same,Growth,[2]; 24 h at 37° C.,++
same,Enz act.,[3]; 18 h at 37° C.,−
same,Growth,[3]; 18 h at 37° C.,−
same,Enz act.,[3]; 24 h at 37° C.,−
same,Growth,[3]; 24 h at 37° C.,−
same,Enz act.,[4]; 18 h at 37° C.,−
same,Growth,[4]; 18 h at 37° C.,−
same,Enz act.,[4]; 24 h at 37° C.,−
same,Growth,[4]; 24 h at 37° C.,−
same,Enz act.,[5]; 18 h at 37° C.,+
same,Growth,[5]; 18 h at 37° C.,+
same,Enz act.,[5]; 24 h at 37° C.,++
same,Growth,[5]; 24 h at 37° C.,+
same,Enz act.,[6]; 18 h at 37° C.,−
same,Growth,[6]; 18 h at 37° C.,+
same,Enz act.,[6]; 24 h at 37° C.,+
same,Growth,[6]; 24 h at 37° C.,+
same,Enz act.,[7]; 18 h at 37° C.,+
same,Growth,[7]; 18 h at 37° C.,+
same,Enz act.,[7]; 24 h at 37° C.,++
same,Growth,[7]; 24 h at 37° C.,+
same,Enz act.,[8]; 18 h at 37° C.,−
same,Growth,[8]; 18 h at 37° C.,−
same,Enz act.,[8]; 24 h at 37° C.,−
same,Growth,[8]; 24 h at 37° C.,−
same,Enz act.,[9]; 18 h at 37° C.,++
same,Growth,[9]; 18 h at 37° C.,++
same,Enz act.,[9]; 24 h at 37° C.,++
same,Growth,[9]; 24 h at 37° C.,++
same,Enz act.,[10]; 18 h at 37° C.,++
same,Growth,[10]; 18 h at 37° C.,++
same,Enz act.,[10]; 24 h at 37° C.,++
same,Growth,[10]; 24 h at 37° C.,++
same,Enz act.,[11]; 18 h at 37° C.,++
same,Growth,[11]; 18 h at 37° C.,++
same,Enz act.,[11]; 24 h at 37° C.,++
same,Growth,[11]; 24 h at 37° C.,++
same,Enz act.,[12]; 18 h at 37° C.,++
same,Growth,[12]; 18 h at 37° C.,++
same,Enz act.,[12]; 24 h at 37° C.,++
same,Growth,[12]; 24 h at 37° C.,++
